Measured values from patent publication US20260048047A1, “SMALL-MOLECULE ACTIVATORS OF MYCOBACTERIUM TUBERCULOSIS ADENYLYL CYCLASE” (priority 2022, published 2026).

Tested on: M. tuberculosis
Test: Extracellular activity against M. tuberculosis in cholesterol media (Alamar Blue reduction assay)
Assay type: cell-based, Mycobacterium tuberculosis
Conditions: Mycobacterium tuberculosis, 240 h, 7H12-Cholesterol media, 10 days; read-out: Cholesterol broth: alamar blue--EC50

Row | Structure (SMILES) | EC50 [nM]
1 | Cc1noc(CC(=O)N2CCC(c3nc(C4CC4(C)C)no3)CC2)n1 (stereo not shown) [Compound 28, 1-(4-(3-(2,2-dimethylcyclopropyl)-1,2,4-oxadiazol-5-yl)piperidin-1-yl)-2-(3-methyl-1,2,4-oxadiazol-5-yl)ethan-1-one] | > 25000
2 | Cc1noc(CC(=O)N2CCC(c3nc(C4CCC(C)(C)C4)no3)CC2)n1 (stereo not shown) [Compound 29, 1-(4-(3-(3,3-dimethylcyclopentyl)-1,2,4-oxadiazol-5-yl)piperidin-1-yl)-2-(3-methyl-1,2,4-oxadiazol-5-yl)ethan-1-one] | 3730
3 | Cc1noc(CC(=O)N2CCC(c3nc(C4CCC(C)(C)CC4)no3)CC2)n1 [Compound 30, 1-(4-(3-(4,4-dimethylcyclohexyl)-1,2,4-oxadiazol-5-yl)piperidin-1-yl)-2-(3-methyl-1,2,4-oxadiazol-5-yl)ethan-1-one] | 1140
4 | Cc1noc(CC(=O)N2CCC(c3nc(C4C[C@@H](C)C[C@@H](C)C4)no3)CC2)n1 (stereo partly drawn) [Compound 31, 1-(4-(3-((3R,5S)-3,5-dimethylcyclohexyl)-1,2,4-oxadiazol-5-yl)piperidin-1-yl)-2-(3-methyl-1,2,4-oxadiazol-5-yl)ethan-1-one] | > 25000
5 | Cc1noc(CC(=O)N2CCC(c3nc(-c4ccc(Cl)cc4Cl)no3)CC2)n1 [Compound 32, 1-(4-(3-(2,4-dichlorophenyl)-1,2,4-oxadiazol-5-yl)piperidin-1-yl)-2-(3-methyl-1,2,4-oxadiazol-5-yl)ethan-1-one] | 718
6 | Cc1noc(CC(=O)N2CCC(c3nc(-c4ccc(Cl)c(Cl)c4)no3)CC2)n1 [Compound 33, 1-(4-(3-(3,4-dichlorophenyl)-1,2,4-oxadiazol-5-yl)piperidin-1-yl)-2-(3-methyl-1,2,4-oxadiazol-5-yl)ethan-1-one] | 140
7 | Cc1noc(CC(=O)N2CCC(c3nc(-c4ccc(Cl)cc4)no3)CC2)n1 [Compound 34, 1-(4-(3-(4-chlorophenyl)-1,2,4-oxadiazol-5-yl)piperidin-1-yl)-2-(3-methyl-1,2,4-oxadiazol-5-yl)ethan-1-one] | 399
8 | Cc1noc(CC(=O)N2CCC(n3nnc(-c4ccc(Cl)cc4)n3)CC2)n1 [Compound 35, 1-(4-(5-(4-chlorophenyl)-2H-tetrazol-2-yl)piperidin-1-yl)-2-(3-methyl-1,2,4-oxadiazol-5-yl)ethan-1-one] | 1080
9 | Cc1noc(CC(=O)N2CCC(c3nc(-c4cccc(Cl)c4)no3)CC2)n1 [Compound 36, 1-(4-(3-(3-chlorophenyl)-1,2,4-oxadiazol-5-yl)piperidin-1-yl)-2-(3-methyl-1,2,4-oxadiazol-5-yl)ethan-1-one] | 1630
10 | Cc1noc(CC(=O)N2CCC(c3nc(C4CCC(C(F)(F)F)CC4)no3)CC2)n1 (stereo not shown) [Compound 37, 2-(3-methyl-1,2,4-oxadiazol-5-yl)-1-(4-(3-(4-(trifluoromethyl)cyclohexyl)-1,2,4-oxadiazol-5-yl)piperidin-1-yl)ethan-1-one] | 7020
11 | Cc1noc(CC(=O)N2CCC(c3nc(-c4ccc(Cl)c(OC(F)(F)F)c4)no3)CC2)n1 [Compound 38] | 1050
12 | Cc1noc(CC(=O)N2CCC(c3nc(-c4ccc(OC(F)(F)F)cc4)no3)CC2)n1 [Compound 39, 2-(3-methyl-1,2,4-oxadiazol-5-yl)-1-(4-(3-(4-(trifluoromethoxy)phenyl)-1,2,4-oxadiazol-5-yl)piperidin-1-yl)ethan-1-one] | 657
13 | Cc1noc(CC(=O)N2CCC(c3nc(C4CCC(F)(F)C4)no3)CC2)n1 (stereo not shown) [Compound 40, 1-(4-(3-(3,3-difluorocyclopentyl)-1,2,4-oxadiazol-5-yl)piperidin-1-yl)-2-(3-methyl-1,2,4-oxadiazol-5-yl)ethan-1-one] | > 25000
14 | Cc1noc(CC(=O)N2CCC(c3nc(C4CCC(F)(F)CC4)no3)CC2)n1 [Compound 41, 1-(4-(3-(4,4-difluorocyclohexyl)-1,2,4-oxadiazol-5-yl)piperidin-1-yl)-2-(3-methyl-1,2,4-oxadiazol-5-yl)ethan-1-one] | > 10000
15 | Cc1noc(CC(=O)N2CCC(O)(c3nc(C4CCC(F)(F)CC4)no3)CC2)n1 [Compound 42, 1-(4-(3-(4,4-difluorocyclohexyl)-1,2,4-oxadiazol-5-yl)-4-hydroxypiperidin-1-yl)-2-(3-methyl-1,2,4-oxadiazol-5-yl)ethan-1-one] | > 10000
16 | Cc1noc(CC(=O)N2CCC(c3noc(C45CC(F)(C4)C5)n3)CC2)n1 [Compound 43, 1-(4-(5-(3-fluorobicyclo[1.1.1]pentan-1-yl)-1,2,4-oxadiazol-3-yl)piperidin-1-yl)-2-(3-methyl-1,2,4-oxadiazol-5-yl)ethan-1-one] | > 25000
17 | Cc1noc(CC(=O)N2CCC(c3nc(-c4ccc(Cl)c(F)c4)no3)CC2)n1 [Compound 44, 1-(4-(3-(4-chloro-3-fluorophenyl)-1,2,4-oxadiazol-5-yl)piperidin-1-yl)-2-(3-methyl-1,2,4-oxadiazol-5-yl)ethan-1-one] | 229
18 | Cc1noc(CC(=O)N2CCC(c3nc(-c4cc(F)cc(Cl)c4)no3)CC2)n1 [Compound 45, 1-(4-(3-(3-chloro-5-fluorophenyl)-1,2,4-oxadiazol-5-yl)piperidin-1-yl)-2-(3-methyl-1,2,4-oxadiazol-5-yl)ethan-1-one] | 2190
19 | Cc1noc(CC(=O)N2CCC(c3nc(-c4ccc(F)cc4Cl)no3)CC2)n1 [Compound 46, 1-(4-(3-(2-chloro-4-fluorophenyl)-1,2,4-oxadiazol-5-yl)piperidin-1-yl)-2-(3-methyl-1,2,4-oxadiazol-5-yl)ethan-1-one] | 2970
20 | Cc1noc(CC(=O)N2CCC(c3nc(-c4ccc(F)c(F)c4)no3)CC2)n1 [Compound 47, 1-(4-(3-(3,4-difluorophenyl)-1,2,4-oxadiazol-5-yl)piperidin-1-yl)-2-(3-methyl-1,2,4-oxadiazol-5-yl)ethan-1-one] | 1450
21 | Cc1noc(CC(=O)N2CCC(c3nc(-c4ccc(F)c(OC(F)(F)F)c4)no3)CC2)n1 [Compound 48, 1-(4-(3-(4-fluoro-3-(trifluoromethoxy)phenyl)-1,2,4-oxadiazol-5-yl)piperidin-1-yl)-2-(3-methyl-1,2,4-oxadiazol-5-yl)ethan-1-one] | 730
22 | Cc1noc(CC(=O)N2CCC(c3nc(-c4ccc(F)cc4)no3)CC2)n1 [Compound 49, 1-(4-(3-(4-fluorophenyl)-1,2,4-oxadiazol-5-yl)piperidin-1-yl)-2-(3-methyl-1,2,4-oxadiazol-5-yl)ethan-1-one] | 1440
23 | Cc1noc(CC(=O)N2CCC(c3cc(-c4ccc(F)cc4)no3)CC2)n1 [Compound 50, 1-(4-(3-(4-fluorophenyl)isoxazol-5-yl)piperidin-1-yl)-2-(3-methyl-1,2,4-oxadiazol-5-yl)ethan-1-one] | > 10000
24 | Cc1noc(CC(=O)N2CCC(n3nnc(-c4ccc(F)cc4)n3)CC2)n1 [Compound 51, 1-(4-(5-(4-fluorophenyl)-2H-tetrazol-2-yl)piperidin-1-yl)-2-(3-methyl-1,2,4-oxadiazol-5-yl)ethan-1-one] | 7640
25 | Cc1noc(CC(=O)N2CCC(c3nc(-c4ccc(F)cc4)co3)CC2)n1 [Compound 52, 1-(4-(4-(4-fluorophenyl)oxazol-2-yl)piperidin-1-yl)-2-(3-methyl-1,2,4-oxadiazol-5-yl)ethan-1-one] | > 10000
